Key:
[1] = Aqueous solution stability (250 mg/ml) at room temperature; type: physicochemical; details: for pH of the aqueous solution: aqueous solution for parenteral injection
[2] = Solid state stability on storage (purity of sample); type: physicochemical; details: for remaining at 672 h: 4 Weeks
Water solubility = type: physicochemical
[3] = Solubility in organic solvents (methanol, acetone, methanol-acetone mixture); type: physicochemical; details: for solubility in methanol-acetone mixture: methanol-acetone containing 20% to 50% by volume methanol, room temperature or below
Excerpt: In carrying out the foregoing process, it is preferred to use sodium 2-ethylhexanoate as salt-forming reagent, but other reagents such as sodium acetate or the sodium salt of other carboxylic acids may be employed. A reaction inert organic solvent such as a liquid alkanol or ester, is preferably employed in combination with the ketone used as imidazolidinone-forming reagent as solvent. A minimal quantity of water may also be employed to facilitate dissolution. The preferred solvents are mixtures of methanol and acetone. […] Accordingly mixtures of these two solvents are employed to provide the desired differential solubility. Mixtures of methanol and acetone containing from 20% to 50% by volume of methanol are suitable. The antibiotic sodium salt 2,2-dimethylimidazolidinone derivative is insoluble in the methanol-acetone mixture at room temperature or below while the 2,2-dimethylimidazolidinone derivative sodium salt of the (E)-isomer is soluble. This difference in solubility provides a basis for the separation of these, otherwise very similar materials.

Gram-negative = details: cited from earlier work

Question: Which “pH of the aqueous solution” value [1] does the source give for `C/C=C\C1=C(C(=O)[O-])N2C(=O)C(NC(=O)[C@H](N)c3ccc(O)cc3)[C@H]2SC1.[Na+]` (stereo partly drawn) [sodium salt of the antibiotic, sodium 7-[D-2-amino-2-(4-hydroxyphenyl)acetamido]-3-((Z)-1-propenyl)ceph-3-em-4-carboxylate, reference compound] here?
Answer: The value was 8.2.

Question: And the “time to 10% potency loss in aqueous solution” value ([1]; sodium salt of the antibiotic per se, solution pH 8.2)?
Answer: The value was 30 min.

Question: Which results are given for `C/C=C\C1=C(C(=O)O)N2C(=O)C(N3C(=O)[C@@H](c4ccc(O)cc4)NC3(C)C)[C@H]2SC1` (some centres unmarked) [sodium 7-[2,2-dimethyl-4-(4-hydroxyphenyl)-5-oxo-1-imidazolidinyl]-3-[(Z)-1-propenyl]ceph-3-em-4-carboxylate]?
Answer: time to 10% potency loss in aqueous solution ([1]; 250 mg/ml aqueous solution, room temperature, pH 7.2): approximately 2 hours; pH of the aqueous solution [1]: 7.2; remaining at 24 h ([2]; 1 Day, 100 deg. C.): 80%; remaining at 168 h ([2]; 1 Week, 70 deg. C.): 94%; remaining at 672 h ([2]; 37 deg. C.): 100%; remaining at 672 h ([2]; 45 deg. C.): 102%; remaining at 672 h ([2]; 56 deg. C.): 98.6%; water solubility (Water solubility): several hundred; solubility in acetone [3]: substantially insoluble; solubility in methanol [3]: very soluble; solubility in methanol-acetone mixture [3]: insoluble

Question: With `C/C=C\C1=C(C(=O)O)N2C(=O)C(NC(=O)[C@H](N)c3ccc(O)cc3)[C@H]2SC1` (stereo partly drawn) [BMY-28100, 7-[D-2-amino-2-(4-hydroxyphenyl)acetamido]-3-[(Z)-1-propenyl]ceph-3-em-4-carboxylic acid] as the molecule, how does the “Gram-negative antibacterial activity compared to the (E)-isomer” value (Gram-negative) read?
Answer: The value was “improved”.

Question: Which results are given for `C/C=C/C1=C(C(=O)O)N2C(=O)C(N3C(=O)[C@@H](c4ccc(O)cc4)NC3(C)C)C2SC1` (some centres unmarked) [acetonide of BMY-28167]?
Answer: solubility in acetone [3]: substantially insoluble; solubility in methanol [3]: very soluble; solubility in methanol-acetone mixture [3]: soluble
